Results from US6559167B1, “Prodrugs of proton pump inhibitors” (Regents of the University of California, priority 1998, dated 2003).
Values joined by “and” are separate entries in the source; they are usually repeats but may differ in a detail not shown here. Identical values can stand only once.

Columns and labels:
[1] = tested on: gastric acid secretion of the conscious male rat; assay: Inhibitory effect on gastric acid secretion of the conscious male rat at timed intervals after oral administration; type: in vivo; set-up: inhibition of gastric acid secretion: concentration or dose not given beside the values; conditions: for % inhibition of gastric acid secretion: male rat; for inhibition of gastric acid secretion: after 5 hr of oral administration
[2] = Relative plasma concentration of OMEPRAZOLE in male rat after oral administration; conditions: male rat;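 note: Sprague-Dawley rats fasted one day with water available, dosed orally with prodrug compounds, OMEPRAZOLE quantified by HPLC in plasma from serial blood draws, control given OMEPRAZOLE itself orally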
Description: Male adult rats of the Sprague-Dawley strain were used for determining the concentration of OMEPRAZOLE in the plasma. All rats were derived of food but not of water for one day. Examples of compounds of the invention (2 mg/kg of rat weight) were orally administrated to male rats (weighing 250 g to 270 g) and blood samples (0.3 ml) were taken at timed intervals. Blood samples were centrifuged and plasma was taken out. Plasma was extracted with 0.5 ml of dichloromethane. Dichloromethane layer was evaporated by nitrogen/air blowing. The residual materials were dissolved in 0.5 ml of 40% acetonitrile in 10 mM phosphate buffer (pH 7.4). Amounts of OMEPRAZOLE were determined by HPLC analysis. As a control, OMEPRAZOLE (4 mg/kg of rat weight) was orally administrated.

[3] = tested on: gastric acid secretion (histamine-stimulated acid output), pylorus-ligated male rats; assay: Initial inhibition of gastric acid secretion after intraduodenal administration to pylorus-ligated rats; type: in vivo; conditions: 10 μmole/kg, after pylorus ligation, histamine 30 mg/kg s.c., acid output over four hours, rat
Description: Histamine (30 mg/kg) was subcutaneously injected to stimulate acid production. The abdomen was surgically closed immediately. Four hours later the esophagus was ligated and the stomach was removed. Acid output was measured as described above.

[4] = Chemical stability: hydrolysis half-life in buffer solution at various pH; type: physicochemical
Source text: By way of concrete examples, the following tests and results are described. […] This is consistent with the knowledge that the compounds obtained by hydrolysis e. g. LANSOPRAZOLE, OMEPRAZOLE, PANTOPRAZOLE and RABEPRAZOLE are well known H,K-ATPase inhibitors. […] Another good example is 2-(2-carbamoylmethoxy-4-{2-[4-(3-methoxypropoxy)-3-methyl pyridin-2-yl methylsulfinyl]benzimidazole-1-sulfonyl}phenoxy)acetamide. The half life of this compound dependes on pH. […] Based on these measured characteristics the compound 2-(2-carbamoylmethoxy-4-{2-[4-(3-methoxypropoxy)-3-methyl pyridin-2-yl methylsulfinyl]benzimidazole-1-sulfonyl}phenoxy)acetamide is expected to be well absorbed, and slowly release the parent RABEPRAZOLE in the blood, resulting in long-lasting in vivo activity. This compound can also be administered intravenously in an aqueous solution at pH 7.4 which solution may include 2-hydroxypropyl-β-cyclodextrin.
The chemical stability of the compounds of the invention has been followed kinetically at low concentration at 37° C. in a buffer solution composed of 0.2M NaCl, 50 mM sodium phosphate, pH 7.4, 2% bovine albumin serum, 5-10% methanol.
The hydrolysis of 2-(2-carbamoylmethoxy-4-{2-[4-(3-methoxy-propoxy)-3-methyl-pyridin-2-ylmethanesulfinyl]-benzimidazole-1-sulfonyl}-phenoxy)-acetamide was measured at various pH.

[5] = between 5-8 hours after oral administration, 10 μmole/kg, histamine and carbachol stimulated
[6] = 20 min after oral administration, examples 2 mg/kg, OMEPRAZOLE 4 mg/kg
[7] = 40 min after oral administration, examples 2 mg/kg, OMEPRAZOLE 4 mg/kg
[8] = 60 min after oral administration, examples 2 mg/kg, OMEPRAZOLE 4 mg/kg
[9] = 80 min after oral administration, examples 2 mg/kg, OMEPRAZOLE 4 mg/kg
[10] = 100 min after oral administration, examples 2 mg/kg, OMEPRAZOLE 4 mg/kg
[11] = 120 min after oral administration, examples 2 mg/kg, OMEPRAZOLE 4 mg/kg
[12] = 140 min after oral administration, 2 mg/kg
[13] = 160 min after oral administration, 2 mg/kg
[14] = 180 min after oral administration, 2 mg/kg
[15] = 210 min after oral administration, 2 mg/kg
[16] = 240 min after oral administration, 2 mg/kg
[17] = 270 min after oral administration, 2 mg/kg
[18] = 300 min after oral administration, 2 mg/kg
[19] = 330 min after oral administration, 2 mg/kg
[20] = 360 min after oral administration, 2 mg/kg
[21] = between 5.5-8.5 hours after oral administration, 10 μmole/kg, histamine and carbachol stimulated
[22] = between 4-7 hr after oral administration

## 1-(Pyridine-3-sulfonyl)-5-methoxy-2-[[(3,5-dimethyl-4-methoxy-2-pyridylmethyl]sulfinyl]-1H-benzimidazole and 1-(pyridine-3-sulfonyl-6-methoxy-2-[[(3,5-dimethyl-4-methoxy-2-pyridyl)methyl]sulfinyl]-1H-benzimidazole [Example 25]
[1]; [5]
  % inhibition of gastric acid secretion: 61% and 61.3 ± 16.1%

## 1-[4-[3-(morpholin-4-yl) propoxy]benzenesulfonyl]-5-methoxy-2-[[(3,5-dimethyl-4-methoxy-2-pyridyl)methyl]sulfinyl]-1H-benzimidazole and 1-[4-[3-(morpholin-4-yl) propoxy]benzenesulfonyl]-6-methoxy-2-[[(3.5-dimethyl-4-methoxy-2-pyridyl)methyl]sulfinyl]-1H-benzimidazole [Example 37]
[2]; [6]
  Relative concentration of OMEPRAZOLE released in the plasma: 1.67 arbitrary unit
[2]; [7]
  Relative concentration of OMEPRAZOLE released in the plasma: 14.36 arbitrary unit
[2]; [8]
  Relative concentration of OMEPRAZOLE released in the plasma: 3.5 arbitrary unit
[2]; [9]
  Relative concentration of OMEPRAZOLE released in the plasma: 1.88 arbitrary unit
[2]; [10]
  Relative concentration of OMEPRAZOLE released in the plasma: 1.88 arbitrary unit
[2]; [11]
  Relative concentration of OMEPRAZOLE released in the plasma: 1.5 arbitrary unit
[2]; [12]
  Relative concentration of OMEPRAZOLE released in the plasma: 1.5 arbitrary unit
[2]; [13]
  Relative concentration of OMEPRAZOLE released in the plasma: 1 arbitrary unit
[2]; [14]
  Relative concentration of OMEPRAZOLE released in the plasma: 1 arbitrary unit
[2]; [15]
  Relative concentration of OMEPRAZOLE released in the plasma: 0.7 arbitrary unit
[2]; [16]
  Relative concentration of OMEPRAZOLE released in the plasma: 0.7 arbitrary unit
[2]; [17]
  Relative concentration of OMEPRAZOLE released in the plasma: 0.7 arbitrary unit
[2]; [18]
  Relative concentration of OMEPRAZOLE released in the plasma: 0.4 arbitrary unit
[2]; [19]
  Relative concentration of OMEPRAZOLE released in the plasma: 0.2 arbitrary unit
[2]; [20]
  Relative concentration of OMEPRAZOLE released in the plasma: 0.1 arbitrary unit
[2]; 390 min after oral administration, 2 mg/kg
  Relative concentration of OMEPRAZOLE released in the plasma: 0.1 arbitrary unit

## 2-{2-carbamoylmethoxy-4-[5-methoxy-2-((4-methoxy-3,5-dimethyl pyridin-2-yl)methylsulfinyl)benzimidazole-1-sulfonyl]phenoxy}acetamide and 2-{2-carbamoylmethoxy-4-[6-methoxy-2-((4-methoxy-3,5-dimethyl pyridin-2-yl)methylsulfinyl)benzimidazole-1-sulfonyl]phenoxy}acetamide [Example 74]
[3]
  inhibition of histamine-stimulated acid output: 64.2%
[1]; administrated to male rat
  gastric acid secretion after administration to male rat (in words): significantly and continuously inhibited
[1]; [21]
  % inhibition of gastric acid secretion: 49.7 ± 3.7%
[1]; between 5.5-8.5 hours after oral administration, 10 μmole/kg, histamine and carbachol stimulated, listed as 2-{2-carbamoylmethoxy-4-[5-methoxy-2-(4-methoxy-3,5-dimethyl pyridin-2-yl)metha
  % inhibition of gastric acid secretion: 49.7%

## 2-{4-[(5-methoxy-2-{[(3.5-dimethyl-4-methoxy-2-pyridyl)methyl]sulfinyl}benzimidazol-1-yl)sulfonyl]phenoxy}acetamide and 2-{4-[(6-methoxy-2-{[(3,5-dimethyl-4-methoxy-2-pyridyl)methyl]sulfinyl}benzimidazol-1-yl)sulfonyl]phenoxy}acetamide [Example 53]
[1]; [5]
  % inhibition of gastric acid secretion: 65.2 ± 11.3%

## Cc1c(OCC(F)(F)F)ccnc1C[S+]([O-])c1nc2ccccc2n1S(=O)(=O)c1ccc(OCC(N)=O)cc1 (stereo not shown) [Example 54]
[1]; [22]
  % inhibition of gastric acid secretion: 46.9%
[1]; between 4-7 hr after oral administration, listed as 2-(4-{[2-({[3-Methyl-4-(2,2,2-trifluoroethoxy)-2-pyridyl]methyl}sulfinyl) benzim)
  % inhibition of gastric acid secretion: 46.9%

## COCCCOc1ccnc(C[S+]([O-])c2nc3ccccc3n2S(=O)(=O)c2ccc(OCC(N)=O)c(OCC(N)=O)c2)c1C (stereo not shown) [Example 77, 2-(2-carbamoylmethoxy-4-{2-[4-(3-methoxypropoxy)-3-methylpyridin-2-ylmethylsulfinyl]benzimidazole-1-sulfonyl}phenoxy)acetamide]
[4]; 2 mg/mL, pH 7.4
  half-life of hydrolysis: 3.73 h
[4]; bovine, pH 7.4, half-life of hydrolysis
  half-life: ~22.2 h
[4]; buffer, pH 2
  half-life of hydrolysis: 1.8 h
[4]; buffer, pH 2, half-life of hydrolysis
  half-life: ~1.8 h
[4]; buffer, pH 8
  half-life of hydrolysis: 10.7 h
[4]; buffer, pH 8, half-life of hydrolysis
  half-life: ~10.7 h
[4]; pH 7.4, half-life of hydrolysis
  half-life at 2 mg/mL: ~3.7 h
[1]
  inhibition of gastric acid secretion: 56%
[1]; [22]
  % inhibition of gastric acid secretion: 56%

## Cc1c(OCC(F)(F)F)ccnc1C[S+]([O-])c1nc2ccccc2n1S(=O)(=O)c1ccc(OCC(N)=O)c(OCC(N)=O)c1 (stereo not shown) [Example 79, 2-(2-Carbamoylmethoxy-4-{2-[3-methyl-4-(2,2,2-trifluoro-ethoxy)-pyridin-2-ylmethanesulfinyl]-benzimidazole-1-sulfonyl}-phenoxy)-acetamide]
[1]; [22]
  % inhibition of gastric acid secretion: 36.8%

## Cc1c(OCC(F)(F)F)ccnc1C[S+]([O-])c1nc2ccccc2[nH]1 (stereo not shown) [LANSOPRAZOLE, reference compound]
[1]; [22]
  % inhibition of gastric acid secretion: 29%
[1]; between 4-7 hr after oral administration, listed as LANOPRAZOLE
  % inhibition of gastric acid secretion: 29%

## COCCCOc1ccnc(C[S+]([O-])c2nc3ccccc3[nH]2)c1C (stereo not shown) [RABEPRAZOLE, reference compound]
[1]
  inhibition of gastric acid secretion: 32%
[1]; [22]
  % inhibition of gastric acid secretion: 32%

## N-(2-{4-[5-methoxy-2-(4-methoxy-3,5-dimethyl pyridin-2-yl methylsulfinyl)benzimidazole-1-sulfonyl]-phenoxy}ethyl)-N,N,N-trimethyl ammonium trifluoromethanesulfonate and N-(2-{4-[6-methoxy-2-(4-methoxy-3,5-dimethyl pyridin-2-yl methylsulfinyl)benzimidazole-1-sulfonyl]-phenoxy}ethyl)-N,N,N-trimethyl ammonium trifluoromethanesulfonate [Example 73]
[1]; [5]
  % inhibition of gastric acid secretion: 21.8 ± 11.7%

## N-(carbamoylmethyl)-2-{4-[(5-methoxy-2-{[(3,5-dimethyl-4-methoxy-2-pyridyl)methyl]sulfinyl}benzimidazol-1-yl)sulfonyl]phenoxy}acetamide and N-(carbamoylmethyl)-2-{4-[(6-methoxy-2-{[(3.5-dimethyl-4-methoxy-2-pyridyl)methyl]sulfinyl}benzimidazol-1-yl)sulfonyl]phenoxy}acetamide [Example 62]
[1]; [21]
  % inhibition of gastric acid secretion: 14.1 ± 7.5%

## N-[4-[[5-methoxy-2-[[(3,5-dimethyl-4-methoxy-2-pyridyl)methyl]sulfinyl]benzimidazol-1-yl]sulfonyl]phenyl]urea and N-[4-[[6-methoxy-2-[[(3,5-dimethyl-4-methoxy-2-pyridyl)methyl]sulfinyl]benzimidazol-1-yl]sulfonyl]phenyl]urea [Example 29]
[2]; [6]
  Relative concentration of OMEPRAZOLE released in the plasma: 4.5 arbitrary unit
[2]; [7]
  Relative concentration of OMEPRAZOLE released in the plasma: 14 arbitrary unit
[2]; [8]
  Relative concentration of OMEPRAZOLE released in the plasma: 8.5 arbitrary unit
[2]; [9]
  Relative concentration of OMEPRAZOLE released in the plasma: 3.5 arbitrary unit
[2]; [10]
  Relative concentration of OMEPRAZOLE released in the plasma: 2.5 arbitrary unit
[2]; [11]
  Relative concentration of OMEPRAZOLE released in the plasma: 1.875 arbitrary unit
[2]; [12]
  Relative concentration of OMEPRAZOLE released in the plasma: 0.625 arbitrary unit
[2]; [13]
  Relative concentration of OMEPRAZOLE released in the plasma: 0.6 arbitrary unit
[2]; [14]
  Relative concentration of OMEPRAZOLE released in the plasma: 0.6 arbitrary unit
[2]; [15]
  Relative concentration of OMEPRAZOLE released in the plasma: 1.5 arbitrary unit
[2]; [16]
  Relative concentration of OMEPRAZOLE released in the plasma: 0.5 arbitrary unit
[2]; [17]
  Relative concentration of OMEPRAZOLE released in the plasma: 0.5 arbitrary unit
[2]; [18]
  Relative concentration of OMEPRAZOLE released in the plasma: 0.2 arbitrary unit
[2]; [19]
  Relative concentration of OMEPRAZOLE released in the plasma: 0.1 arbitrary unit
[2]; [20]
  Relative concentration of OMEPRAZOLE released in the plasma: 0.05 arbitrary unit
